From the supplement of paper PMC6045584
± gives the standard deviation of the averaged measurements.

compound: CC(=O)NCC(=O)N1[C@@H]2CC[C@H]1c1ccc(Nc3ncc(C(F)(F)F)c(NC4CCC4)n3)cc12; assay: surviving fraction relative to DMSO-only wells; higher = less growth inhibition; details: 0.5 nM; exposure time: 5 days
Method in brief: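 Each tumour cell line was screened three times, and only lines with replicate Pearson r >0.7 and median Z' >0.3 were kept. Cells in log phase were seeded at 250–500 per well in 384-well plates, left 24 hours, then exposed continuously for five days to inhibitors at 0.5, 1, 5, 10, 50, 100, 500 and 1000 nM. Viability was read as CellTiter-Glo luminescence, with surviving fraction normalised to the median of DMSO-only wells.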

Test System | surviving fraction
SAOS2 BONE | 1.03 ± 0.017
MDAMB436 BREAST | 0.912 ± 0.039
93VU HEADNECK | 0.823 ± 0.059
KPD BONE | 0.977 ± 0.019
SYO1 SYNOVIAL | 0.943 ± 0.061
BT20 BREAST | 1.03 ± 0.028
SUM44 BREAST | 1.04 ± 0.039
CAL120 BREAST | 0.923 ± 0.051
CHLA90 AUTONOMIC GANGLIA | 0.951 ± 0.025
HCC1806 BREAST | 0.995 ± 0.055
HCC78 LUNG | 0.885 ± 0.16
MFM223 BREAST | 1.1 ± 0.065
SG43 HEADNECK | 1.01 ± 0.065
HOS BONE | 1.03 ± 0.013
MDAMB468 BREAST | 0.977 ± 0.023
SG27 HEADNECK | 1.04 ± 0.03

Test System | surviving fraction
ZR751 BREAST | 0.874 ± 0.18
HSSYII SYNOVIAL | 0.921 ± 0.035
MG63 BONE | 0.974 ± 0.0053
HS57T BREAST | 0.907 ± 0.056
SUM159 BREAST | 1.11 ± 0.22
HCC1395 BREAST | 0.928 ± 0.15
SUM149.B1*.S BREAST | 1 ± 0.017
MDAMB453 BREAST | 1.03 ± 0.021
SCC90 HEADNECK | 0.769 ± 0.12
HMLE3 BREAST | 0.923 ± 0.046
HCC70 BREAST | 0.976 ± 0.052
LNCAP PROSTATE | 0.859 ± 0.059
HCT15 LARGE INTESTINE | 0.969 ± 0.062
MHM BONE | 0.986 ± 0.016
VCAP PROSTATE | 1.06 ± 0.051

same assay, conditions: 1 nM; exposure time: 5 days

Test System | surviving fraction
SAOS2 BONE | 1.045 ± 0.0052
MDAMB436 BREAST | 0.875 ± 0.053
93VU HEADNECK | 0.803 ± 0.035
KPD BONE | 0.987 ± 0.026
SYO1 SYNOVIAL | 0.955 ± 0.024
BT20 BREAST | 0.968 ± 0.062
SUM44 BREAST | 0.997 ± 0.013
CAL120 BREAST | 0.9253 ± 0.0041
CHLA90 AUTONOMIC GANGLIA | 0.983 ± 0.046
HCC1806 BREAST | 0.914 ± 0.11
HCC78 LUNG | 0.798 ± 0.052
MFM223 BREAST | 1.02 ± 0.035
SG43 HEADNECK | 1.18 ± 0.26
HOS BONE | 1.013 ± 0.0087
MDAMB468 BREAST | 1.04 ± 0.046
SG27 HEADNECK | 1.05 ± 0.042

Test System | surviving fraction
ZR751 BREAST | 0.927 ± 0.062
HSSYII SYNOVIAL | 0.8998 ± 0.0079
MG63 BONE | 0.966 ± 0.015
HS57T BREAST | 0.894 ± 0.049
SUM159 BREAST | 1.08 ± 0.16
HCC1395 BREAST | 1.05 ± 0.12
SUM149.B1*.S BREAST | 1.01 ± 0.037
MDAMB453 BREAST | 1.05 ± 0.034
SCC90 HEADNECK | 0.816 ± 0.048
HMLE3 BREAST | 0.934 ± 0.029
HCC70 BREAST | 1.03 ± 0.057
LNCAP PROSTATE | 0.872 ± 0.052
HCT15 LARGE INTESTINE | 0.9727 ± 0.009
MHM BONE | 0.989 ± 0.031
VCAP PROSTATE | 1.05 ± 0.086

same assay, conditions: 5 nM; exposure time: 5 days

Test System | surviving fraction
SAOS2 BONE | 1.08 ± 0.069
MDAMB436 BREAST | 0.908 ± 0.033
93VU HEADNECK | 0.951 ± 0.029
KPD BONE | 0.991 ± 0.07
SYO1 SYNOVIAL | 0.93 ± 0.08
BT20 BREAST | 1.02 ± 0.09
SUM44 BREAST | 1.09 ± 0.028
CAL120 BREAST | 0.945 ± 0.029
CHLA90 AUTONOMIC GANGLIA | 0.96 ± 0.028
HCC1806 BREAST | 1.14 ± 0.041
HCC78 LUNG | 0.935 ± 0.13
MFM223 BREAST | 1.05 ± 0.094
SG43 HEADNECK | 0.8 ± 0.25
HOS BONE | 1.01 ± 0.025
MDAMB468 BREAST | 1.05 ± 0.026
SG27 HEADNECK | 0.868 ± 0.14

Test System | surviving fraction
ZR751 BREAST | 0.923 ± 0.12
HSSYII SYNOVIAL | 0.886 ± 0.044
MG63 BONE | 0.99 ± 0.024
HS57T BREAST | 0.955 ± 0.0027
SUM159 BREAST | 1.1 ± 0.21
HCC1395 BREAST | 0.979 ± 0.062
SUM149.B1*.S BREAST | 0.979 ± 0.017
MDAMB453 BREAST | 1.01 ± 0.046
SCC90 HEADNECK | 0.936 ± 0.035
HMLE3 BREAST | 1.01 ± 0.053
HCC70 BREAST | 0.982 ± 0.099
LNCAP PROSTATE | 0.77 ± 0.08
HCT15 LARGE INTESTINE | 0.971 ± 0.037
MHM BONE | 0.979 ± 0.019
VCAP PROSTATE | 1.08 ± 0.11

same assay, conditions: 10 nM; exposure time: 5 days

Test System | surviving fraction
SAOS2 BONE | 1.06 ± 0.092
MDAMB436 BREAST | 0.882 ± 0.12
93VU HEADNECK | 1 ± 0.061
KPD BONE | 1.04 ± 0.093
SYO1 SYNOVIAL | 0.893 ± 0.078
BT20 BREAST | 0.87 ± 0.051
SUM44 BREAST | 1.06 ± 0.13
CAL120 BREAST | 0.9333 ± 0.0076
CHLA90 AUTONOMIC GANGLIA | 0.91 ± 0.039
HCC1806 BREAST | 1.11 ± 0.031
HCC78 LUNG | 0.878 ± 0.28
MFM223 BREAST | 0.963 ± 0.077
SG43 HEADNECK | 0.923 ± 0.17
HOS BONE | 1.006 ± 0.0098
MDAMB468 BREAST | 0.987 ± 0.041
SG27 HEADNECK | 1.04 ± 0.079

Test System | surviving fraction
ZR751 BREAST | 0.925 ± 0.04
HSSYII SYNOVIAL | 0.851 ± 0.05
MG63 BONE | 0.987 ± 0.013
HS57T BREAST | 0.94 ± 0.044
SUM159 BREAST | 1.07 ± 0.16
HCC1395 BREAST | 1.04 ± 0.0025
SUM149.B1*.S BREAST | 0.976 ± 0.038
MDAMB453 BREAST | 1.07 ± 0.032
SCC90 HEADNECK | 0.991 ± 0.089
HMLE3 BREAST | 0.941 ± 0.092
HCC70 BREAST | 1.01 ± 0.033
LNCAP PROSTATE | 0.893 ± 0.19
HCT15 LARGE INTESTINE | 0.98 ± 0.036
MHM BONE | 0.999 ± 0.011
VCAP PROSTATE | 0.935 ± 0.053
